Assay [1] can be described thus: Inhibition of rice alpha glucosidase. On the set-up: species or system Oryza sativa.
The species entered for assay [2] is Sus scrofa. Put plainly: Inhibition of porcine kidney trehalase at 1000 uM relative to control. Type of assay: tissue-based.
A short description of assay [3]: Inhibition of human lysosomal alpha-galactosidase. Type of assay: subcellular, Lysosome.
Another assay concerns the target Alpha-glucosidase (Saccharomyces cerevisiae S288c, UniProt P53341+P38158+P07265). Put plainly: Inhibition of yeast alpha-glucosidase. In kind it is protein assay.
A further assay has as its target Alpha-galactosidase (Coffea arabica, UniProt Q42656). Put plainly: Inhibition of coffee bean alpha-galactosidase.
Assay [4] in a line: Inhibition of bovine liver beta-galactosidase. Type of assay: tissue-based, Bos taurus.
Assay [5] deals with T1, Tissue alpha-L-fucosidase (Bos taurus) (UniProt Q2KIM0).
T1 sequence (whole entry): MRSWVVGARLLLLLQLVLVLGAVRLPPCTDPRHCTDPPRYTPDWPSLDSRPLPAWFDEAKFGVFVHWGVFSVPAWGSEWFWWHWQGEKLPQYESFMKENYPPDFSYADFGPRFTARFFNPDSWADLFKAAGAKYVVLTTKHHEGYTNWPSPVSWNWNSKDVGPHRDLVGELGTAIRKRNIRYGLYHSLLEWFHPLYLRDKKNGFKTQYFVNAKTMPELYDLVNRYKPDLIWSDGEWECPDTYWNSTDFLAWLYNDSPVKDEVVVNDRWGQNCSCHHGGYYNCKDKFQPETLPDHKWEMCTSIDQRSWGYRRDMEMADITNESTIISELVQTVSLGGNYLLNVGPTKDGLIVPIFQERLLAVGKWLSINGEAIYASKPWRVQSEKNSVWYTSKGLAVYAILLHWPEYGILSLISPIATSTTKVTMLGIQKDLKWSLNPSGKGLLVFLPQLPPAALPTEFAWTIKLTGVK
Put plainly: Inhibition of bovine kidney alpha-L-fucosidase at 1000 uM. Type of assay: tissue-based.

For assay [6], the system named is Helix pomatia. Put plainly: Inhibition of snail beta-mannosidase at 1000 uM.
Assay [7] can be described thus: Inhibition of Bovine liver beta-glucosidase. In kind it is tissue-based, Bos taurus.
Assay [8] concerns the target Lysosomal alpha-glucosidase (Homo sapiens, UniProt P10253). Put plainly: Inhibition of human lysosomal alpha-glucosidase. Type of assay: subcellular, Lysosome.
The target in assay [9] is Beta-glucuronidase (Escherichia coli (strain K12)) (UniProt P05804). Put plainly: Inhibition of Escherichia coli beta-glucuronidase at 1000 uM.
Chain of Beta-glucuronidase (Escherichia coli (strain K12)) (P05804 whole entry, looked up): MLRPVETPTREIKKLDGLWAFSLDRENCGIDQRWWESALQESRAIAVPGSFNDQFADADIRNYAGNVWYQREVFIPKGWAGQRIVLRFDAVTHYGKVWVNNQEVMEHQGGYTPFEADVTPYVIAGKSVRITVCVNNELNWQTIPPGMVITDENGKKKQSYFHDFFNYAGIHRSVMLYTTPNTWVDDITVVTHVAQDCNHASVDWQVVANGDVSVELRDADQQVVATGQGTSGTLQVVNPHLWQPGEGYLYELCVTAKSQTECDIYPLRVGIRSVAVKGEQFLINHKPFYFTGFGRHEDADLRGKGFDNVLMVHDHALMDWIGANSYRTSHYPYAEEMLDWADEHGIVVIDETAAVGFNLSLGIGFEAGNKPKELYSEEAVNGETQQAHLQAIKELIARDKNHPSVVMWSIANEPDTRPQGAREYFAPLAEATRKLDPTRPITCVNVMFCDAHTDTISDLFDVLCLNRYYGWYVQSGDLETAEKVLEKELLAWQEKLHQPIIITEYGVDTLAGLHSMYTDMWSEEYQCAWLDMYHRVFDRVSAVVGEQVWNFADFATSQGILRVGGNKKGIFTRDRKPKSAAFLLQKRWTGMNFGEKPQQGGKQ
Assay [10] deals with T2, Alpha-mannosidase (Canavalia ensiformis) (UniProt C0HJB3).
T2 sequence (whole entry): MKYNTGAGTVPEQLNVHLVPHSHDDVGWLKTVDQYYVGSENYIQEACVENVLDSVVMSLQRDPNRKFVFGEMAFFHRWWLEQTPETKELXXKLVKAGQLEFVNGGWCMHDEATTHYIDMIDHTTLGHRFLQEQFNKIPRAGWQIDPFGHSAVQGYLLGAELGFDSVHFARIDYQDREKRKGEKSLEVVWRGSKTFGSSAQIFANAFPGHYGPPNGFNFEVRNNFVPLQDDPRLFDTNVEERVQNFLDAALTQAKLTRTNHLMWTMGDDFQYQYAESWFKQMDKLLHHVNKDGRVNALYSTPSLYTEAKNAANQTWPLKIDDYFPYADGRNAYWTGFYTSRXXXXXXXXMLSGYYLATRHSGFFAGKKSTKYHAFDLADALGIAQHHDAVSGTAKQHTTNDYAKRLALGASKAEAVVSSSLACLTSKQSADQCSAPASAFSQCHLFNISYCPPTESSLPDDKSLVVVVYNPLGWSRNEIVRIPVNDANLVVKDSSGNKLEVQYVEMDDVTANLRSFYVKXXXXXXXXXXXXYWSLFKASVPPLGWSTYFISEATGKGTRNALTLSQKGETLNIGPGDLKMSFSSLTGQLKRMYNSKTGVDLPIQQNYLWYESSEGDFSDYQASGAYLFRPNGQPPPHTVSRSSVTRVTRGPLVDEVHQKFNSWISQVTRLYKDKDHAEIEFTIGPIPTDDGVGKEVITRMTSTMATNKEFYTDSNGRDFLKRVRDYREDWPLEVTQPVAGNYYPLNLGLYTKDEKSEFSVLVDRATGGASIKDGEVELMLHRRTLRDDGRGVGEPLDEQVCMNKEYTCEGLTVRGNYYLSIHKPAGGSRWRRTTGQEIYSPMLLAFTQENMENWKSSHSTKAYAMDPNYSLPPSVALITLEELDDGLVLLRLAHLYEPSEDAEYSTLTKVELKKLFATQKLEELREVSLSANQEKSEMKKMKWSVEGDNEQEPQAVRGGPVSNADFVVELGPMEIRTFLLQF
Put plainly: Inhibition of jack bean alpha-mannosidase at 1000 uM.

The subject of assay [11] is Aspergillus niger. Put plainly: Inhibition of Aspergillus niger amyloglucosidase at 1000 uM relative to control.
A short description of assay [12]: Inhibition of rat intestinal maltase. In kind it is tissue-based, Intestine.
Assay [13] relates to Penicillium decumbens. Put plainly: Inhibition of Penicillium decumbens alpha-L-rhamnosidase at 1000 uM relative to control.
Assay [14] is filed under the species Bos taurus. Put plainly: Inhibition of bovine liver beta-glucuronidase at 1000 uM. In kind it is tissue-based.
A short description of assay [15]: (§1) Inhibition of almond beta-glucosidase at 100 uM relative to control. On the set-up: species or system Prunus dulcis.
The nature of assay [16]: Inhibition of Almond beta-glucosidase. On the set-up: species or system Prunus dulcis.
Assay [17] has as its system Helix pomatia. Put plainly: Inhibition of snail beta-mannosidase at 100 uM.
Assay [18] addresses T2, Alpha-mannosidase (Canavalia ensiformis). Put plainly: Inhibition of jack bean alpha-mannosidase at 100 uM.
The species named for a further assay is Homo sapiens. Put plainly: Inhibition of human lysosomal alpha-galactosidase at 100 uM realtive to control. In kind it is subcellular. The following applies: Lysosome.
For assay [19], the species on record is Sus scrofa. Put plainly: Inhibition of porcine kidney trehalase at 100 uM relative to control. In kind it is tissue-based.
The test system of assay [20] is Penicillium decumbens. Put plainly: Inhibition of Penicillium decumbens alpha-L-rhamnosidase at 100 uM relative to control.
Assay [21] is filed under the species Bos taurus. Put plainly: Inhibition of bovine liver beta-glucuronidase at 100 uM.
For assay [22], the system named is Aspergillus niger. Put plainly: Inhibition of Aspergillus niger amyloglucosidase at 100 uM relative to control.
Assay [23] concerns the target Beta-glucuronidase (Escherichia coli (strain K12)) (UniProt P05804). Put plainly: Inhibition of Escherichia coli beta-glucuronidase at 100 uM.
Assay [24] has as its target T1, Tissue alpha-L-fucosidase (Bos taurus). Put plainly: Inhibition of bovine kidney alpha-L-fucosidase at 100 uM.
Assay [25] relates to Prunus dulcis. Described as §1.
For assay [26], the system named is Prunus dulcis. Put plainly: Inhibition of almond beta-glucosidase at 1000 uM relative to control.
Assay [27] has as its system Prunus dulcis. Put plainly: Inhibition of Almond beta-glucosidase at 412 uM relative to control.
The target in assay [28] is Alpha-galactosidase (Coffea arabica) (UniProt Q42656). Put plainly: Inhibition of coffee bean alpha-galactosidase at 1000 uM relative to control.
Chain of Alpha-galactosidase (Coffea arabica) (Q42656 16-378 limits assumed): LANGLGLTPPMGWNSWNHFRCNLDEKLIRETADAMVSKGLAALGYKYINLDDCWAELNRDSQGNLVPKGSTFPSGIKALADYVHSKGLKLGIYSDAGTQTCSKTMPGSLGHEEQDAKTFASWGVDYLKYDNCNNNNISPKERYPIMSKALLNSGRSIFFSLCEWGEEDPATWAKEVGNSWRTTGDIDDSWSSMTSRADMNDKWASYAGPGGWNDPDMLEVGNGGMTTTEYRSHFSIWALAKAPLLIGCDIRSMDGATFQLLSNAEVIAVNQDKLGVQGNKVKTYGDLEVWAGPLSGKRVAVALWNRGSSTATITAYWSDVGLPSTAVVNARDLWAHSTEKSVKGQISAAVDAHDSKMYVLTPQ
A short description of assay [29]: Inhibition of Almond beta-glucosidase using p-nitrophenyl glycoside as substrate preincubated for 5 mins followed by substrate addition and measured after 15 mins by spectrometry analysis. On the set-up: species or system Prunus dulcis.

Calls of active or inactive are those of the source. The calls are words filed in the database; no cut-off is given here.

10 molecules from ChEMBL document CHEMBL5316362, “Synthesis of the Purported Structure of Glyphaeaside C and Proposed Revisions to the Structures of the Glyphaeaside Alkaloids” (J Nat Prod, 2023) can be followed below.

Chain of Alpha-galactosidase (Q42656 whole entry): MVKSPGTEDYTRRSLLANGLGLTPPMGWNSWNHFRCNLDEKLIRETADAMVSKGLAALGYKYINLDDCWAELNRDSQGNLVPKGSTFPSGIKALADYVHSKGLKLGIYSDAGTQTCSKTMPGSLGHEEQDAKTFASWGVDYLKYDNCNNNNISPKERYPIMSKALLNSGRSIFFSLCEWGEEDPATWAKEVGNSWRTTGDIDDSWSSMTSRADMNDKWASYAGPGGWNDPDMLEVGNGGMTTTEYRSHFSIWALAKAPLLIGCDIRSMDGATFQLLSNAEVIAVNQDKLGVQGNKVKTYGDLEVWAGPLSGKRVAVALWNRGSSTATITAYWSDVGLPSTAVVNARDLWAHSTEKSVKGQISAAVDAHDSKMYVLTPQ

In the case of `CCCCCCCC[C@H]1N[C@H](CO)[C@@H](O)[C@H](O)[C@H]1O`, the IC50 is 0.7 µM in [1]; 13 µM in assay [3]; 71 µM against Alpha-glucosidase; 3.3 µM against Alpha-galactosidase; 52 µM in [4]; 195 µM in assay [7]. In addition, the IC50 in assay [8] was determined as 0.6 µM; in assay [12], 1.7 µM; in assay [15], 175 µM; in assay [16] it was 175 µM. Besides, the inhibition in the assay filed under Sus scrofa [2] amounted to 43.2%; in the assay on Aspergillus niger [11] it was 38.8%; in the assay with Penicillium decumbens [13] it was 43.8%. In addition, the inhibition entry (in assay [5]; in the assay on Helix pomatia [6]; in assay [9]; in assay [10]; in the assay listed under Bos taurus [14]) was “inactive” throughout.

Regarding `OC[C@H]1N[C@H](CO)[C@@H](O)[C@H]1O`, the IC50 in assay [16] came to 40 µM.

Molecule `OC[C@H]1N[C@H]([C@H](O)C(O)CCCCCC(O)C(O)C(O)c2ccccc2)[C@@H](O[C@@H]2O[C@H](CO)[C@@H](O)[C@H](O)[C@H]2O)[C@H]1O` (some centres undefined) came in with an IC50 in assay [16] of 15 µM.

In assay [16], `OC[C@H]1N[C@H]([C@H](O)C(O)CCCCCCC(O)C(O)c2ccccc2)[C@@H](O[C@@H]2O[C@H](CO)[C@@H](O)[C@H](O)[C@H]2O)[C@H]1O` (some centres undefined) gave an IC50 of 68 µM.

On to `O=C(O)C(F)(F)F.OC[C@H]1N[C@H](CCCCCCCCCc2ccc(O)cc2)[C@H](O)[C@@H](O)[C@@H]1O`, for which the IC50 amounted to 0.4 µM in assay [1]; 95 µM against Alpha-glucosidase; 22 µM against Alpha-galactosidase; 4.1 µM in assay [4]; 25 µM in assay [7]; 0.25 µM in [8]. In [12], this molecule returned an IC50 of 0.95 µM. Also, the inhibition result (in the assay on Helix pomatia [17]; in assay [18]; in the assay listed under Bos taurus [21]; in assay [23]; in assay [24]) was “inactive” in each case. Also, the inhibition in the assay listed under Homo sapiens is 42.9%; in the assay filed under Sus scrofa [19] it was 13.2%; in the assay on Penicillium decumbens [20], 10.9%; with Aspergillus niger [22], 16.4%; in the assay on Prunus dulcis [25] it was 33.1%.

Regarding `OCCCCCC/C=C\C[C@H](O)[C@@H](O)[C@H]1N[C@H](CO)[C@H](O)[C@@H]1O[C@@H]1O[C@H](CO)[C@@H](O)[C@H](O)[C@H]1O`, the inhibition in the assay with Prunus dulcis [26] is below 50%. For the same molecule, half-maximal inhibition against Alpha-galactosidase (IC50) required 8 µM.

`OCCCCCCCCCCCC[C@H](O)[C@@H]1N[C@@H](CO)[C@H](O)[C@H]1O`: the inhibition in the assay on Prunus dulcis [27] was 15.2%.

`OC[C@H]1N[C@H]([C@H](O)CCCCCC[C@H](O)[C@@H](O)Cc2ccc(O)cc2)[C@@H](O)[C@@H]1O`: in assay [16], it took 0.92 µM to reach half-maximal inhibition (IC50).

With `OC[C@H]1N[C@H](C(O)CCCCCCC(O)C(O)c2ccccc2)[C@H](O)[C@@H](O)[C@H]1O` (some centres undefined), in [28], the inhibition turned out to be 76%.

With `OC[C@H]1N[C@H](CCCCCCC(O)C(O)Cc2ccc(O)cc2)[C@H](O)[C@@H](O)[C@@H]1O` (some centres undefined), it took 0.15 µM to reach half-maximal inhibition in assay [29] (IC50).
